Data as given in article PMC8286840, “Identifying SARS-CoV-2 antiviral compounds by screening for small molecule inhibitors of Nsp3 papain-like protease” (Biochemical Journal, 2021).
Where a name gives a salt, the structure may show the parent alone. Read-outs that look alike come from different tables or passages of the source. Where a SMILES comes first, the peptide text is derived from it. Bridges are numbered along the chain shown (N, C = ends). [ ]: non-standard residue; d: D form. The star is where a group is joined. NMePhe(4-NMe2) = CN[C@@H](Cc1ccc(N(C)C)cc1)C(=O)O; Pip(4-oxo) = O=C1CCN[C@H](C(=O)O)C1; Picolinoyl(3-OH) = O=C(c1ncccc1O)*; Phg = N[C@H](C(=O)O)c1ccccc1; dAbu = CC[C@@H](N)C(=O)O

Key:
[1] = target: T1, SARS-CoV-2 PLpro (nsp3 1564–1878) (Severe acute respiratory syndrome coronavirus 2, UniProt P0DTD1); assay: biochemical; set-up: FRET-quenched peptide (Pro3) cleavage by PLpro, 10 min pre-incubation, slope over 20 min, normalised to no-compound control; conditions: low concentration screen, read-out: % of control remaining
[2] = target: T1, SARS-CoV-2 PLpro (nsp3 1564–1878); assay: biochemical; set-up: FRET-quenched peptide (Pro3) cleavage by PLpro, 10 min pre-incubation, slope over 20 min, normalised to no-compound control; conditions: high concentration screen, read-out: % of control remaining

For `CCc1c(C(=O)OC)ncc2[nH]c3cc(OC)c(OC)cc3c12` [Methyl 6,7-dimethoxy-4-ethyl-beta-carboline-3-carboxylate], the remaining activity at 1.25 µM ([1]; Well no.=703) was 97.5% and the remaining activity at 3.75 µM ([2]; Well no.=703) was 95.4%.
Molecule `O=C(Nc1ccccc1C(=O)Nc1ccc(CCO)cc1)c1ccc([N+](=O)[O-])cc1` [KS-176] has a remaining activity at 1.25 µM ([1]; Well no.=5911) of 101% and a remaining activity at 3.75 µM ([2]; Well no.=5911) of 102%.
`O=C(O)/C(=C/c1c(C(=O)O)[nH]c2cc(Cl)cc(Cl)c12)c1ccccc1` [MDL 105,519] was tested, and the remaining activity at 1.25 µM ([1]; Well no.=803) was 95% and the remaining activity at 3.75 µM ([2]; Well no.=803) was 93%.
With `Clc1cccc(CN=C2Nc3ccccc3NC23CCNCC3)c1` [Liproxstatin-1] the remaining activity at 1.25 µM ([1]; Well no.=5945) was 98.7%, the remaining activity at 1.25 µM ([1]; Well no.=6402) was 94.5% and the remaining activity at 3.75 µM ([2]; Well no.=5945) was 97.6%. For the same molecule, the remaining activity at 3.75 µM ([2]; Well no.=6402) was 93.9%.
In the case of `CC(C)N(CCC(C(N)=O)(c1ccccc1)c1ccccn1)C(C)C` (centres unmarked) [Disopyramide], the remaining activity at 1.25 µM ([1]; Well no.=390) is reported as 101% and the remaining activity at 3.75 µM ([2]; Well no.=390) is reported as 101%.
For `CNc1nccc(-c2cccnc2Oc2cc(C(=O)Nc3cccc(C(F)(F)F)c3)ccc2C)n1` [AMG-Tie2-1], the remaining activity at 1.25 µM ([1]; Well no.=2788) was 97.1% and the remaining activity at 3.75 µM ([2]; Well no.=2788) was 94.9%.
`CC[C@H]1NC(=O)[C@@H](NC(=O)c2ncccc2O)[C@@H](C)OC(=O)[C@H](c2ccccc2)NC(=O)[C@@H]2CC(=O)CCN2C(=O)[C@H](Cc2ccc(N(C)C)cc2)N(C)C(=O)[C@@H]2CCCN2C1=O` [Pristinamycin IA] ({Picolinoyl(3-OH)}-T[dAbu]P[NMePhe(4-NMe2)][Pip(4-oxo)][Phg]; ester 1-C) was tested, and the remaining activity at 1.25 µM ([1]; Well no.=7980) was 96.9% and the remaining activity at 3.75 µM ([2]; Well no.=7980) was 96.6%.
`O=C(O)c1cc(=O)cc(C(=O)O)[nH]1` [Chelidamic acid] showed a remaining activity at 1.25 µM ([1]; Well no.=282) of 86.7% and a remaining activity at 3.75 µM ([2]; Well no.=282) of 90.8%.
For `CC[C@@H](C)C(=O)O[C@H]1[C@H](O)[C@H]2[C@@H](CN3C[C@@H](C)CC[C@H]3[C@@]2(C)O)[C@@H]2C[C@]34O[C@]5(O)[C@@H](OC(=O)[C@](C)(O)[C@@H](C)O)CC[C@@]3(C)[C@@H]5[C@@H](OC(C)=O)[C@@H](OC(C)=O)[C@H]4[C@@]21O` (stereo in doubt) [Protoveratrine B], the remaining activity at 1.25 µM ([1]; Well no.=3454) was 97.9% and the remaining activity at 3.75 µM ([2]; Well no.=3454) was 98.3%.
`CC[C@@H](C(=O)[C@@H](C)[C@@H](O)[C@H](C)[C@@H]1O[C@@H]([C@@H](CC)C(=O)O)CC[C@@H]1C)[C@H]1O[C@]2(C=C[C@@H](O)[C@]3(CC[C@@](C)([C@H]4CC[C@](O)(CC)[C@H](C)O4)O3)O2)[C@H](C)C[C@@H]1C` [Salinomycin] gave a remaining activity at 1.25 µM ([1]; Well no.=3499) of 104% and a remaining activity at 3.75 µM ([2]; Well no.=3499) of 102%.
`C[C@]12N[C@H](Cc3ccccc31)c1ccccc12` [(+)-MK-801 hydrogen maleate] was tested, and the remaining activity at 1.25 µM ([1]; Well no.=1133) was 98.4% and the remaining activity at 3.75 µM ([2]; Well no.=1133) was 92.1%.
For `C[C@]12CC[C@@H]3c4ccc(O)cc4CC[C@H]3[C@@H]1C[C@@H](O)[C@@H]2O` [Estriol], the remaining activity at 1.25 µM ([1]; Well no.=2036) was 105%, the remaining activity at 1.25 µM ([1]; Well no.=6489) was 104% and the remaining activity at 3.75 µM ([2]; Well no.=2036) was 104%. It also gave a remaining activity at 3.75 µM ([2]; Well no.=6489) of 108%.
Work on `CNCCC[C@]12CC[C@H](c3ccccc31)c1ccccc12` [Maprotiline hydrochloride] yielded a remaining activity at 1.25 µM ([1]; Well no.=845) of 103% and a remaining activity at 3.75 µM ([2]; Well no.=845) of 103%.
With `CC(C)n1cnc2c(NCc3ccccc3O)nc(NCCCO)nc21` [Cdk Inhibitor, p35] the remaining activity at 1.25 µM ([1]; Well no.=2387) was 94.5% and the remaining activity at 3.75 µM ([2]; Well no.=2387) was 97%.
With `Cc1cccc(Nc2nc(-c3ccncc3)cs2)c1` [STF-62247] the remaining activity at 1.25 µM ([1]; Well no.=4615) was 102% and the remaining activity at 3.75 µM ([2]; Well no.=4615) was 106%.
Molecule `CC(=O)C1=C(O)C(=O)N(c2ccc(Cl)cc2F)[C@@H]1C1CCCCC1` [CCR2-RA-[R]] has a remaining activity at 1.25 µM ([1]; Well no.=8118) of 100%, a remaining activity at 1.25 µM ([1]; Well no.=8229) of 96.6% and a remaining activity at 3.75 µM ([2]; Well no.=8118) of 95.9%. It also gave a remaining activity at 3.75 µM ([2]; Well no.=8229) of 91.4%.
`Cn1c([N+](=O)[O-])cnc1COC(N)=O` [Ronidazole] showed a remaining activity at 1.25 µM ([1]; Well no.=4700) of 99.8% and a remaining activity at 3.75 µM ([2]; Well no.=4700) of 96.7%.
Work on `CN(C)c1ccc(/C=C2\C(=O)Nc3ccccc32)cc1` [SU 4312 - 3-[[4-(dimethylamino)phenyl]methylene]-1,3-dihydro-2H-indol-2-one] yielded a remaining activity at 1.25 µM ([1]; Well no.=2430) of 106% and a remaining activity at 3.75 µM ([2]; Well no.=2430) of 109%.
For `COc1cc2nccc(Oc3ccc(NC(=S)NC(=O)c4ccccc4C)cc3)c2cc1OC` [PDGF RTK Inhibitor], the remaining activity at 1.25 µM ([1]; Well no.=2509) was 104% and the remaining activity at 3.75 µM ([2]; Well no.=2509) was 101%.
`NCCCCN(Cc1nc2ccccc2[nH]1)[C@H]1CCCc2cccnc21` [AMD-070 (hydrochloride)] showed a remaining activity at 1.25 µM ([1]; Well no.=7093) of 106% and a remaining activity at 3.75 µM ([2]; Well no.=7093) of 100%.
In the case of `CCCCCCCCCCCCCCCCCCCC(=O)O` [Eicosanoic acid], the remaining activity at 1.25 µM ([1]; Well no.=4400) is reported as 94.6% and the remaining activity at 3.75 µM ([2]; Well no.=4400) is reported as 93.4%.
`C[C@H](O)[C@H](O)[C@H]1CNc2nc(N)[nH]c(=O)c2N1` [Tetrahydrobiopterin] gave a remaining activity at 1.25 µM ([1]; Well no.=6159) of 108% and a remaining activity at 3.75 µM ([2]; Well no.=6159) of 109%.
`COc1cc(C(=O)OCCCCNC(=N)N)cc(OC)c1O` [4-{[amino(imino)methyl]amino}butyl 4-hydroxy-3,5-dimethoxybenzoate] showed a remaining activity at 1.25 µM ([1]; Well no.=5718) of 93.5% and a remaining activity at 3.75 µM ([2]; Well no.=5718) of 98.3%.
For `CCN(CC)CCNC(=O)c1c(C)[nH]c(/C=C2\C(=O)Nc3ccc(F)cc32)c1C` [Sunitinib], the remaining activity at 1.25 µM ([1]; Well no.=2703) was 102% and the remaining activity at 3.75 µM ([2]; Well no.=2703) was 100%.
With `NC(=O)c1ccc(OCC(O)CN2CC=C(c3ccc(F)cc3)CC2)cc1` (centres unmarked) [Ro 8-4304] the remaining activity at 1.25 µM ([1]; Well no.=1160) was 98.3% and the remaining activity at 3.75 µM ([2]; Well no.=1160) was 99.3%.
`CCCN1CCO[C@@H]2c3cc(O)ccc3OC[C@H]21` [S(+)-PD 128,907 hydrochloride] was tested, and the remaining activity at 1.25 µM ([1]; Well no.=1265) was 102% and the remaining activity at 3.75 µM ([2]; Well no.=1265) was 104%.
For `NCC(O)C1CCCCCCC1` (centres unmarked) [2-Cyclooctyl-2-hydroxyethylamine hydrochloride], the remaining activity at 1.25 µM ([1]; Well no.=485) was 106% and the remaining activity at 3.75 µM ([2]; Well no.=485) was 105%.
For `COc1cc(C[C@H]2C(=O)OC[C@@H]2Cc2ccc(OC)c(OC)c2)ccc1O` [Arctigenin - (3R,4R)-4-[(3,4-Dimethoxyphenyl)methyl]dihydro-3-[(4-hydroxy-3-methoxyphenyl)methyl]-2(3H)-furanone], the remaining activity at 1.25 µM ([1]; Well no.=2446) was 105% and the remaining activity at 3.75 µM ([2]; Well no.=2446) was 105%.
Work on `C=CCN1C[C@H](C(=O)N(CCCN(C)C)C(=O)NCC)C[C@@H]2c3cccc4[nH]cc(c34)C[C@H]21` [Cabergoline] yielded a remaining activity at 1.25 µM ([1]; Well no.=1929) of 105%, a remaining activity at 1.25 µM ([1]; Well no.=7179) of 94.5% and a remaining activity at 3.75 µM ([2]; Well no.=1929) of 105%. It also gave a remaining activity at 3.75 µM ([2]; Well no.=7179) of 96.6%.
Work on `CC(C)C[C@H](NC(=O)[C@H](CCc1ccccc1)NC(=O)CN1CCOCC1)C(=O)N[C@@H](Cc1ccccc1)C(=O)N[C@@H](CC(C)C)C(=O)[C@@]1(C)CO1` [Carfilzomib (PR-171)] yielded a remaining activity at 1.25 µM ([1]; Well no.=5173) of 103% and a remaining activity at 3.75 µM ([2]; Well no.=5173) of 97.1%.
